Read-outs that look alike come from different tables or passages of the source. Blank lines part the entries; values can stand above or below the molecule they belong to.
What was measured:
MOLM14 cells = assay: Proliferation assay B (spheroid assay) MOLM14; type: cell-based, human; conditions: confluence at day 8, read-out: (3b) Spheroid assay MOLM14 (IC50(μM)) Assay B
Protocol: 3b) Proliferation Assay B
(§1) The anti-proliferative effect of menin/MLL protein/protein interaction inhibitor test compounds was assessed in human leukemia cell lines. The cell lines MV-4-11 and MOLM14 harbor MLL translocations and express the MLL fusion proteins MLL-AF4 and MLL-AF9, respectively, as well as the wildtype protein from the second allele. […] K562 was used as a control cell line containing two MLL wildtype alleles in order to exclude compounds that display general cytotoxic effects.
(§2) MV-4-11 and MOLM14 were cultured in RPMI-1640 (Sigma Aldrich) supplemented with 10% fetal bovine serum (HyClone), 2 mM L-glutamine (Sigma Aldrich) and 50 μg/ml gentamycin (Gibco). K562 were propagated in RPMI-1640 (Sigma Aldrich) supplemented with 20% fetal bovine serum (HyClone), 2 mM L-glutamine (Sigma Aldrich) and 50 μg/ml gentamycin (Gibco).
(§3) In order to assess the anti-proliferative effects, 1,500 MV-4-11, 300 MOLM14 cells or 750 K562 cells were seeded in 200 μl media per well in 96-well round bottom, ultra-low attachment plates (Costar, catalogue number 7007). Cell seeding numbers were chosen based on growth curves to ensure linear growth throughout the experiment. Test compounds were added at different concentrations and the DMSO content was normalized to 0.3%. Cells were incubated for 8 d at 37° C. and 5% CO2. Spheroid like growth was measured in real-time by live-cell imaging (IncuCyteZOOM, Essenbio, 4× objective) acquiring images at day 8. Confluence (%) as a measure of spheroid size was determined using an integrated analysis tool.
In order to determine the effect of the test compounds over time, the confluence in each well as a measure of spheroid size, was calculated. Confluence […] at the beginning of the experiment (t=0) was used as baseline for the calculation.
Absolute IC50 values were calculated as percent change in confluence as follows:
LC=Low Control: cells treated with 1 μM of the cytotoxic agent staurosporin
HC=High Control: Mean confluence (%) (DMSO treated cells)
Effect=100−(100*(Sample−LC)/(HC−LC))
To determine the IC50 a curve is fitted to the plot of % Effect vs Log 10 compound concentration using a sigmoidal fit with a variable slope and fixing the maximum to 100% and the minimum to 0%.

[1] = target: T1, menin.FITC-MBM1 complex (terbium chelate-labeled menin) (Homo sapiens, UniProt O00255, F410E/T541A); assay: Menin/MLL homogenous time-resolved fluorescence (HTRF) assay; type: binding
T1 construct: Menin (a.a. 1-610-6×his tag) was labeled with terbium cryptate as follows
T1 sequence (O00255 with tags, fused parts or gaps F410E/T541A): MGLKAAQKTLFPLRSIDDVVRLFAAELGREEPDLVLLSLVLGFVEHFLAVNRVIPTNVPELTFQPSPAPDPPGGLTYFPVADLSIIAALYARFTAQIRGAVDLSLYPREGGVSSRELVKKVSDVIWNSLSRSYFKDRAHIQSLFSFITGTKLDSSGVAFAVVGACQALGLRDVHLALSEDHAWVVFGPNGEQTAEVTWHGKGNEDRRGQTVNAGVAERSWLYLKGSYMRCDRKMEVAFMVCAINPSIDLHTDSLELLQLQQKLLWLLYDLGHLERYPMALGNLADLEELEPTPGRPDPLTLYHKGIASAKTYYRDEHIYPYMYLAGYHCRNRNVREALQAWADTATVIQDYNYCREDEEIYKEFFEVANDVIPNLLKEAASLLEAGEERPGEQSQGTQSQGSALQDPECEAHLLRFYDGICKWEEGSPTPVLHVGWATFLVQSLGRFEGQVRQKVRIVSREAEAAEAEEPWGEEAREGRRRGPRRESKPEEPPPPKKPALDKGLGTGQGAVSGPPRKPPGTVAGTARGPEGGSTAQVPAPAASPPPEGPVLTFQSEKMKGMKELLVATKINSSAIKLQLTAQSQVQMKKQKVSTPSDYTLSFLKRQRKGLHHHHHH
Protocol: 2) Menin/MLL Homogenous Time-Resolved Fluorescence (HTRF) Assay
To an untreated, white 384-well microtiter plate was added 40 nL 200× test compound in DMSO and 4 μL 2× terbium chelate-labeled menin (vide infra for preparation) in assay buffer (40 mM Tris.HCl, pH 7.5, 50 mM NaCl, 1 mM DTT and 0.05% Plutonic F-127). After incubation of test compound and terbium chelate-labeled menin for 5 min at ambient temperature, 4 μL2× FITC-MBM1 peptide (FITC-β-alanine-[…]-NH2) in assay buffer was added, the microtiter plate centrifuged at 1000 rpm for 1 min and the assay mixtures incubated for 15 min at ambient temperature. The relative amount of menin.FITC-MBM1 complex present in an assay mixture is determined by measuring the homogenous time-resolved fluorescence (HTRF) of the terbium/FITC donor/acceptor fluorphore pair using a BMG Pherastar plate reader (ex. 337 nm/terbium em. 490 nm/FITC em. 520 nm) at ambient temperature. The degree of fluorescence resonance energy transfer (the HTRF value) is expressed as the ratio of the fluorescence emission intensities of the FITC and terbium fluorophores (F^em 520 nm/F^em 490 nm). The final concentrations of reagents in the binding assay are 100 pM terbium chelate-labeled menin (location 1) or 600 pM terbium chelate-labeled menin (location 2), 75 nM FITC-MBM1 peptide and 0.5% DMSO in assay buffer. Dose-response titrations of test compounds are conducted using an 11 point, three-fold serial dilution scheme, starting typically at 25 μM (location 1) or starting typically at 10 μM (location 2).
Compound potencies were determined by first calculating % inhibition at each compound concentration according to equation 1:
% inhibition=((HC−LC)−(HTRF^compound−LC))/(HC−LC))*100 (Eqn 1)
Where LC and HC are the HTRF values of the assay in the presence or absence of a saturating concentration of a compound that competes with FITC-MBM1 for binding to menin, and HTRF^compound is the measured HTRF value in the presence of the test compound. HC and LC HTRF values represent an average of at least 16 replicates per plate.
% inhibition=Bottom+(Top−Bottom)/(1+10^((log IC50−log [cmpd])*h)) (Eqn 2)
Where Bottom and Top are the lower and upper asymptotes of the dose-response curve, respectively, IC50 is the concentration of compound that yields 50% inhibition of signal and h is the Hill coefficient.
Preparation of Terbium cryptate labeling of Menin: Menin (a.a. 1-610-6×his tag) was labeled with terbium cryptate as follows. 2 mg of Menin was buffer exchanged into 1× phosphate buffered saline. 16 uM Menin was incubated with 4-fold molar excess NHS-terbium cryptate (Cisbio Bioassays, Bedford, Mass.) for 2 hours at room temperature. The labeled protein was purified away from free label by running the reaction over a Superdex 200 Increase 10/300 GL column at 0.75 ml/min. Peak fractions were collected, aliquoted and frozen at −80° C.

MV-4-11 cells = assay: Proliferation assay A (spheroid assay) MV-4-11; type: cell-based; conditions: Homo sapiens, MV4-11, 192 h, 8 d, AUC of confluence against time, absolute IC50, read-out: (3a) Spheroid assay MV-4-11 (IC50(μM)) Assay A
Protocol: 3a) Proliferation Assay A
as §1, §2
as §3, with “MOLM14” for “MOLM14 cells”, “monitored” for “measured”, “one image every four hours for 8 d.” for “images at day 8.”
In order to determine the cumulative effect of the test compounds over time, the area under the curve (AUC) in a plot of confluence against time was calculated. Confluence at the beginning of the experiment (t=0) was used as baseline for the AUC calculation.
Absolute IC50 values were calculated according to the following procedure:
% Control=(AUC sample/AUC control)*100
AUC control=mean AUC of control values (cells without compound/DMSO as vehicle control)
A non-linear curve fit was applied using the least squares (ordinary) fit method to the plot of % control versus compound concentration. Based on this, the absolute IC50 value (half maximal inhibitory concentration of the test compound causing an anti-proliferative effect of 50% relative to the vehicle control) was calculated.

[2] = location 2, read-out: (2) location 2 Menin HTRF assay (IC50 (nM))

SMILES: CN1CCN(Cc2cc(NC3CC4(CCN(c5ncnc6sc(CC(F)(F)F)cc56)C4)C3)ccc2C#N)CC1 (mixture of isomers) [Compound 225]
IC50 (MOLM14 cells; Homo sapiens, MOLM-14, 192 h): 1.95 µM

SMILES: CNC(=O)c1ccc(NC2CC3(CCN(c4ncnc5sc(CC(F)(F)F)cc45)C3)C2)cc1NCCN(C)C (mixture of isomers) [Compound 239]
IC50 (MOLM14 cells; Homo sapiens, MOLM-14, 192 h): > 3.75 µM

SMILES: CNC(=O)c1ccc(N[C@@H]2CC[C@]3(CCN(c4ncnc5sc(CC(F)(F)F)cc45)C3)C2)cc1 (racemic) [Compound 136]
IC50 [1, 2]: 40.9 nM

SMILES: FC(F)(F)Cc1cc2c(N3CC[C@]4(CC[C@H](NCc5ccccc5)C4)C3)ncnc2s1 (single isomer, unassigned) [Compound 4]
IC50 (MV-4-11 cells): 0.5 µM

SMILES: O=c1[nH]c2ccc(CN[C@@H]3CCC4(C3)CN(c3ncnc5sc(CC(F)(F)F)cc35)C4)cc2o1 (single isomer, unassigned) [Compound 55]
IC50 [1, 2]: 2 nM

SMILES: CNC(=O)c1ccc(NC2CC3(CCN(c4ncnc5sc(CC(F)(F)F)cc45)C3)C2)c(Cl)c1 (single isomer, unassigned) [Compound 68]
IC50 (MOLM14 cells; Homo sapiens, MOLM-14, 192 h): 2.24 µM

SMILES: CNC(=O)c1ccc(NC2CC3(CCN(c4ncnc5sc(CC(F)(F)F)cc45)C3)C2)c(Cl)c1 (single isomer, unassigned) [Compound 69]
IC50 [1, 2]: 1.2 nM

SMILES: CN(C)CCNC(=O)c1ccc(NC2CC3(CCN(c4ncnc5sc(CC(F)(F)F)cc45)C3)C2)cc1 (single isomer, unassigned) [Compound 74]
IC50 (MOLM14 cells; Homo sapiens, MOLM-14, 192 h): > 3.75 µM

SMILES: CS(=O)(=O)N1CCN(C(=O)c2ccc(NC3CC4(CCN(c5ncnc6sc(CC(F)(F)F)cc56)C4)C3)cc2)CC1 (single isomer, unassigned) [Compound 179]
IC50 (MOLM14 cells): > 3.75 µM

SMILES: CN1CCC(c2cc(NC3CC4(CCN(c5ncnc6sc(CC(F)(F)F)cc56)C4)C3)ccc2C(=O)N2CCOCC2)CC1 (single isomer, unassigned) [Compound 233]
IC50 (MOLM14 cells): > 3.75 µM

SMILES: O=C(c1cnc(NC2CC3(CCN(c4ncnc5sc(CC(F)(F)F)cc45)C3)C2)nc1)N1CCOCC1 (single isomer, unassigned) [Compound 259]
IC50 (MOLM14 cells): > 3.75 µM

SMILES: CC(C)CNC1CC2(CCN(c3ncnc4sc(CC(F)(F)F)cc34)C2)C1 (stereo not shown) [Compound 50]
IC50 ([1]; location 1, read-out: (2) location 1 Menin HTRF assay (IC50 (nM))): 95.8 nM | IC50 (MV-4-11 cells): 0.91 µM

Results, then the molecule that gave them:

IC50 (MOLM14 cells; Homo sapiens, MOLM-14, 192 h): 1.14 µM
SMILES: CN1CCN(c2cc(NC3CC4(CCN(c5ncnc6sc(CC(F)(F)F)cc56)C4)C3)ccc2C#N)CC1 (mixture of isomers) [Compound 240]

IC50 (MV-4-11 cells): 1.12 µM
SMILES: FC(F)(F)Cc1cc2c(N3CC[C@@]4(CC[C@H](NCc5ccccc5)C4)C3)ncnc2s1 (single isomer, unassigned) [Compound 6]

IC50 [1, 2]: 114 nM
SMILES: N#Cc1ccc(NC2CC3(CCN(c4ncnc5sc(CC(F)(F)F)cc45)C3)C2)nc1 (single isomer, unassigned) [Compound 174]

IC50 (MOLM14 cells): > 3.75 µM
SMILES: COC1CCN(C(=O)c2ccc(NC3CC4(CCN(c5ncnc6sc(CC(F)(F)F)cc56)C4)C3)cc2)CC1 (single isomer, unassigned) [Compound 184]

IC50 (MOLM14 cells): > 3.75 µM
SMILES: CNC(=O)c1ccc(NC2CC3(CCN(c4ncnc5sc(CC(F)(F)F)cc45)C3)C2)cc1C1CCN(C)CC1 (single isomer, unassigned) [Compound 231]

IC50 (MOLM14 cells): > 3.75 µM
SMILES: CNC(=O)c1c(F)cc(NC2CC3(CCN(c4ncnc5sc(CC(F)(F)F)cc45)C3)C2)cc1F (single isomer, unassigned) [Compound 244]

IC50 [1, 2]: 1310 nM
SMILES: O=S(=O)(NC1CC2(CCN(c3ncnc4sc(CC(F)(F)F)cc34)C2)C1)c1ccccc1 (stereo not shown) [Compound 23]

IC50 [1, 2]: 50.9 nM
SMILES: FC(F)(F)Cc1cc2c(N3CC4(CCC(Nc5ccc(-c6cn[nH]c6)cc5)C4)C3)ncnc2s1 (stereo not shown) [Compound 302]

IC50 [1, 2]: 143 nM
SMILES: CNS(=O)(=O)c1ccc(NC2CC3(CCN(c4ncnc5sc(CC(F)(F)F)cc45)C3)C2)cc1 (stereo not shown) [Compound 317]

IC50 [1, 2]: 91.5 nM
SMILES: O=c1[nH]c2ccc(NC3CC4(CCN(c5ncnc6sc(CC(F)(F)F)cc56)C4)C3)cc2[nH]1 (stereo not shown) [Compound 321]

IC50 [1, 2]: 8.7 nM | IC50 (MOLM14 cells; Homo sapiens, MOLM-14, 192 h): > 3.75 µM
SMILES: Nc1nc(N2CCC3(CC(Nc4ccc5oc(=O)[nH]c5c4)C3)C2)c2cc(CC(F)(F)F)sc2n1 (stereo not shown) [Compound 380]
